One experiment concerns 3T3-L1 cells. Kind of experiment: Intracellular triglyceride accumulation in differentiating 3T3-L1 cells. In kind it is cell-based, Mouse. The following applies: 10 ng/ml; 8 days differentiation. Here is the method:
The cells were washed with PBS, scraped with homogenizing solution, residual cell lysate was centrifuged at 3,000 g for 5 minutes to remove fat layers, and the supernatants were assayed for triglyceride levels.

In experiment [1] the test system is 3T3-L1 adipocytes. The experiment is described as follows: Lipid accumulation in 3T3-L1 adipocytes (Oil-Red O). In kind it is cell-based, Mouse. The note with it: 10 ng/ml.
Protocol: Briefly, 3T3 L1cells (American Type Culture Collection) were cultured in Dulbecco's modified Eagle's medium (DMEM) (GIBCO) containing 10% bovine calf serum until confluent. Two days post-confluence (DO), cells were stimulated to differentiate with DMEM containing 10% fetal bovine serum (FBS), 5 μg/ml insulin, 0.5 mM 3-isobutyl-1-methylxanthine (IBMX) and 1 μM dexamethasone for two days (D2).
Differentiated cells were then maintained in 10% FBS/DMEM medium with 5 μg/ml insulin for another two days (D4), followed by culturing with 10% FBS/DMEM medium for four days (D8).
To examine lipid accumulation, four different concentrations of Composition 3 (40, 80, 120 and 160 ug/ml) were tested with medium from Days 0 to 8 of adipogenesis. The culture medium was replaced every two days, and the cells were stained with Oil-Red O on Day 8.
Experiment [2] deals with human cannabinoid CB2 receptor protein (Homo sapiens (Human), UniProt P34972). Kind of experiment: CB2 receptor-ligand binding assay ([3H] WIN-55,212-2). On the procedure: Briefly, human cannabinoid CB2 receptor protein expressed in CHO-K1 cells were used in modified HEPES buffer (pH 7.0). A 30 μg aliquot of CB2-membrane was mixed with tritium labeled nonspecific CB1 agonist [3H] WIN-55,212-2 (2.4 nM) and test samples of Kuwanon G and Albanin G compounds, or just the nonspecific ligand R (+)-WIN-55,212-2 (10 μM) (positive control) were incubated in incubation buffer (20 mM HEPES (pH 7.0), 0.5 mg/ml BSA) for 90 minutes at 37° C. After incubation, the membranes were filtered and washed; the filters were then counted to determine the amount of radiolabeled [^3H] WIN-55,212-2 that was specifically bound to the CB2-membrane.
Chain of human cannabinoid CB2 receptor protein (P34972 whole entry): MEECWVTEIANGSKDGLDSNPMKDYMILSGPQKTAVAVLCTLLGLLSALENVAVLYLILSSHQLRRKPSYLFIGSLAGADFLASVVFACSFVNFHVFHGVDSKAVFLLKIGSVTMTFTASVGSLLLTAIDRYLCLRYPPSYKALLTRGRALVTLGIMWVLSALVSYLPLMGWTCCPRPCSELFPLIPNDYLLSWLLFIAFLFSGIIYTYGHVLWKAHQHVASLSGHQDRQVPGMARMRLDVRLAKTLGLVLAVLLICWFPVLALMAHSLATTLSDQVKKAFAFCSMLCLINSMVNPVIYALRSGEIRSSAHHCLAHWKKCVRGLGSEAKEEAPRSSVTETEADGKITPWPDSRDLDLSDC

The test system of a further experiment is Rice α-glucosidase. The experiment is described as follows: Rice α-Glucosidase inhibition assay. It counts as biochemical. The following applies: 100 μg/ml. Here is the method:
Inhibition of rice α-glucosidase activity by each of the purified Kuwanon G and Albanin G compounds was measured as follows. […] The reaction was initiated with addition of 2 mM p-nitrophenyl a-D-glucopyanoside, incubated for another 90 minute at 70° C., and then terminated by adding of 1 M sodium carbonate. The end-product p-nitrophenol was measured by spectrophotometer.

Experiment [3] has as its target T1, human CB1 receptor (Homo sapiens (Human), UniProt P21554). Kind of experiment: CB1 receptor binding assay ([3H] SR141716A). The note with it: for inhibition at 20 µg/mL: read-out: % Inhibition CB1-Binding; for CB1 selectivity over CB2: from CB1 and CB2 IC50. On the procedure: Cannabinoid receptor binding assays were used as a primary screening method to identify CB1 antagonist compounds. […] Briefly, human cannabinoid receptor protein bound to Chem-1 membrane was used in modified HEPES (pH 7.4) buffer. A 10 microgram (μg) aliquot of Chem-1 membrane, radioactively labeled [^3H] […] After incubation, the membranes were filtered and washed four times and then the filters were counted to determine amount of [^3H]

Experiment [4] addresses T1, human CB1 receptor. The experiment is described as follows: CB1 Antagonist Effect GPCR Functional Assay (cAMP). It counts as cell-based. The following applies: for inhibition at 100 µM: read-out: CB1 Antagonist Inhibition. Here is the method:
(§1) In vitro efficacy and CB1 binding specificity of compounds isolated from Morus alba and Milicia excelsa were tested in the human CB1 receptor binding assay, and the agonist or antagonist function of the compounds was determined by measuring the effect on cAMP or agonist-induced cAMP modulation.
Following 10 min incubation at 37° C., the cells are lysed and the fluorescence acceptor (D2-labeled cAMP) and fluorescence donor (anti-cAMP antibody labeled with europium cryptate) are added. After 60 min at room temperature, the fluorescence transfer is measured at λex=337 nm and λem=620 nm and 665 nm using a microplate reader (Rubystar, BMG). The cAMP concentration is determined by dividing the signal measured at 665 nm by that measured at 620 nm (ratio).

Experiment [5] addresses T1, human CB1 receptor. The experiment is described as follows: CB1 Agonist Effect GPCR Functional Assay (cAMP). It counts as cell-based. Here is the method: as §1
Following a 10 minute incubation at 37° C., the cells are lysed and the fluorescence acceptor (D2-labeled cAMP) and fluorescence donor (anti-cAMP antibody labeled with europium cryptate) were added. After 60 min at room temperature, the fluorescence transfer is measured at λex=337 nm and λem=620 nm and 665 nm using a microplate reader (Rubystar, BMG). The cAMP concentration is determined by dividing the signal measured at 665 nm by that measured at 620 nm (ratio).

Experiment [6] relates to 3T3-L1 adipocytes. Kind of experiment: Lipolysis (free glycerol released) in mature 3T3-L1 adipocytes. In kind it is cell-based, Mouse. The note with it: 10 μM. Here is the method: Isoproterenol (10 μM) was used as a positive control. The conditioned medium was recovered and free glycerol released was assayed by using a lipolysis assay kit (Sigma-Aldrich Inc., USA) following the manufacturer's instructions.

Where two headings read alike, the source gives them in different places.

Here are results for six compounds from US20240024403A1, “Compositions and Methods for Managing Weight” (Unigen, Inc., priority 2012, published 2024).

T1 sequence (P21554 whole entry): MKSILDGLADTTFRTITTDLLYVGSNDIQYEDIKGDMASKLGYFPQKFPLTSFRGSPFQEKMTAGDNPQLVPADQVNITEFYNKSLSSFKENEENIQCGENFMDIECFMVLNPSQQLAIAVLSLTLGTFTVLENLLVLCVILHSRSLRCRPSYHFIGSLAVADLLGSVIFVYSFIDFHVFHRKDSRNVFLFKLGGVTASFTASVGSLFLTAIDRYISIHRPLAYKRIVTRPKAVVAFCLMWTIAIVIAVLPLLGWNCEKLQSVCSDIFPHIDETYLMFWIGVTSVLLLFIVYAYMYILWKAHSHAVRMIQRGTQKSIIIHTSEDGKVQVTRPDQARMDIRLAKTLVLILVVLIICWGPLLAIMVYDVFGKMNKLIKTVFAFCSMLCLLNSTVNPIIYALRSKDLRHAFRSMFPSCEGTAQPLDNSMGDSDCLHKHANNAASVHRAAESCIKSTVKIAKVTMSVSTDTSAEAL
Protocol for DPPH anti-oxidation test: The DPPH radical has a violet color in solution, but changes to light yellow or colorless when reduced to DPPH-H (2,2-diphenyl-1-picrylhydrazin) after reaction with free radicals. The color change can be followed spectrophotometrically at 517 nm to determine the anti-oxidative potential of a composition. Briefly, a 0.2 mM solution of DPPH in DMSO was mixed with each test sample at concentrations of 20, 40, 80 and 160 μg/ml. Ascorbic acid was used as a positive control. After a 30 minute incubation in the dark, the color change (i.e., decrease in absorbance) was measured at 517 nm in a spectrophotometer.

As for TNF-α, in the experiment on 3T3-L1 cells, the “Inhibition (%) of intracellular triglyceride accumulation” value was found to be 19.4%. Besides, the “Inhibition (%) of lipid accumulation” value came to 61.0% in the experiment with 3T3-L1 adipocytes [1] (Table 159, Oil-Red O Day 8); 68.9% with 3T3-L1 adipocytes [1] (Table 160); 74.1 ± 6.06% in the experiment with 3T3-L1 adipocytes [1] (Table 161).

Regarding `CC(C)=CCc1c(O)ccc(C(=O)C2C(c3c(O)cc(O)c4c(=O)c(CC=C(C)C)c(-c5ccc(O)cc5O)oc34)C=C(C)CC2c2ccc(O)cc2O)c1O` (centres unmarked) [Albanin G], in experiment [2], the IC50 (usually the concentration that inhibits the measured activity by half) worked out at 6.6 µM. Besides, the “% Inhibition Rice α-glucosidase” value with Rice α-glucosidase was found to be 66%. Also, on human CB1 receptor [3], the concentration for half-maximal inhibition (IC50) was 0.1 µM and the “CB1 selectivity over CB2” value was “CB1 selective inhibitors”. Moreover, at human CB1 receptor [3] (20 μg/ml), the inhibition – broadly, the relative decrease from the control value, in per cent – at 20 µg/mL stood at 96%. Also, at human CB1 receptor [4], the “CB1 receptor functional behavior (antagonist)” value is “modest antagonist-like activity”. The inhibition at 100 µM at human CB1 receptor [4] (at 100 μM) came to 17%.

In the case of `CC(C)=CCc1c(-c2ccc(O)cc2O)oc2c(C3C=C(C)CC(c4ccc(O)cc4O)C3C(=O)c3ccc(O)cc3O)c(O)cc(O)c2c1=O` (centres unmarked) [Kuwanon G], on human CB1 receptor [5], the “CB1 receptor functional behavior (agonist)” value is given as “agonist-like behavior instead of antagonist” and the EC50 (usually the concentration at which the effect is half-maximal) came to 85 µM. In addition, the half-inhibitory concentration (IC50) in [2] was 28.9 µM. In the experiment on Rice α-glucosidase, the “% Inhibition Rice α-glucosidase” value is reported as −22%. At human CB1 receptor [3], the half-inhibitory concentration (IC50) was determined as 10.1 µM and the “CB1 selectivity over CB2” value was “CB1 selective inhibitors”. In addition, the “% Inhibition CB1-Binding” value on human CB1 receptor [3] (20 μg/ml) was found to be 92%. Moreover, the “CB1 Antagonist Inhibition” value at human CB1 receptor [4] (at 100 μM) is given as −1%.

In the case of `CC(C)=CCC12Oc3c(c(O)cc(O)c3C3C=C(C)CC(c4ccc(O)cc4O)C3C(=O)c3ccc(O)cc3O)C(=O)C1(O)Oc1cc(O)ccc12` (centres unmarked) [Sanggenon, Sanggenon C/D/], at human CB1 receptor [5], the “CB1 receptor functional behavior (agonist)” value was “agonist-like behavior instead of antagonist” and the response was half-maximal at 31 µM (EC50). The IC50 in experiment [2] is 24 µM. For the same compound, on human CB1 receptor [3], the concentration for half-maximal inhibition (IC50) was 3.5 µM, the “CB1 selectivity over CB2” value is “CB1 selectivity over the CB2 receptor protein” and the inhibition at 20 µg/mL came out at 96%. Further, the inhibition at 100 µM at human CB1 receptor [4] was -14%.

As to `O=C1O[C@H]([C@@H](O)CO)C(O)=C1O` [Ascorbic acid], the “DPPH Inhibition (%)” value in “DPPH anti-oxidation test” (20 μg/ml) is 50.8 ± 0.83%; in “DPPH anti-oxidation test” (40 μg/ml), 53.6 ± 1.72%; in the experiment “DPPH anti-oxidation test” (80 μg/ml), 64.2 ± 0.86%; in “DPPH anti-oxidation test” (160 μg/ml), 76.6 ± 0.30%.

For `CC(C)NCC(O)c1ccc(O)c(O)c1` (centres unmarked) [Isoproterenol], the “Lipolysis, % of Control” value is given as 464.2 % of Control with 3T3-L1 adipocytes [6] (24 hrs) and 525.0 % of Control with 3T3-L1 adipocytes [6] (48 hrs).
